Reference: patent US9174992B2, “Heterobicyclic compounds” (Amgen Inc., priority 2012, dated 2015)

molecular target: PDE10A (UniProt Q9Y233); assay: PDE10 enzyme inhibition, IMAP TR-FRET assay (Example A, MPDE10A7 Enzyme Activity and Inhibition); assay type: biochemical; details: approximate IC50 value, Table 10
Outline: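 Compounds were preincubated 60 min at room temperature with PDE10A enzyme or tissue homogenate, then fluorescein-labeled cAMP or cGMP was added for 90 min. After stopping with IMAP binding reagents, TR-FRET was read and IC50s were fitted with a four-parameter logistic equation.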

Row | Compound | IC50 [nM]
1 | O=C1N([C@H]2C[C@H](Nc3nc4ccccc4s3)C2)c2ncccc2C12CC2 [Example 31, 1′-(Trans-3-(benzo[d]thiazol-2-ylamino)cyclobutyl)spiro[cyclopropane-1,3′-pyrrolo[2,3-b]pyridin]-2′(1′H)-one] | 0.0151
2 | Clc1ncnc2c1ncn2[C@H]1C[C@H](Nc2ncc3ccccc3n2)C1 [Example 21, N-(Trans-3-(6-chloro-9H-purin-9-yl)cyclobutyl)quinazolin-2-amine] | 88.4
3 | CC1(C)C(=O)N(C2CCN(c3nc4ccccc4s3)CC2)c2ncccc21 [Example 189, 1-(1-(benzo[d]thiazol-2-yl)piperidin-4-yl)-3,3-dimethyl-1H-pyrrolo[2,3-b]pyridin-2(3 H)-one] | 1.99
4 | CC1(C)C(=O)N([C@H]2C[C@H](Nc3nc4cc(F)c(F)cc4s3)C2)c2nccnc21 [Example 169, 5-(trans-3-((5,6-difluorobenzo[d]thiazole-2-yl)amino)cyclobutyl)7,7-dimethyl-5H-pyrrolo-[2,3-b]pyrazin-6(7 H)-one] | 0.416
5 | Cn1c(=O)n([C@H]2C[C@H](Nc3nc4ccccc4o3)C2)c2ncccc21 [Example 142, 3-(trans-3-(benzo[d]oxazol-2-ylamino)cyclobutyl)-1-methyl-1H-imidazo[4,5-b]pyridin-2(3H)-one] | 1.31
6 | CC(C)c1cnc(N[C@H]2C[C@H](N3C(=O)C(C)(C)c4cccnc43)C2)nc1 [Example 82, 1-(trans-3-((5-isopropylpyrimidin-2-yl)amino)cyclobutyl)-3,3-dimethyl-1H-pyrrolo[2,3-b]pyridin-2(3H)-one] | 2.83
7 | O=c1n(C2CC2)c2cccnc2n1[C@H]1C[C@H](Nc2nc3ccccc3s2)C1 [Example 85, 3-(trans-3-(benzo[d]thiazol-2-ylamino)cyclobutyl)-1-cyclopropyl-1H-imidazo[4,5-b]pyridin-2(3H)-one] | 0.0254
8 | COc1nc2cccnc2n1[C@H]1C[C@H](Nc2ncc3ccc(Cl)cc3n2)C1 [Example 28, 7-Chloro-N-(trans-3-(2-methoxy-3H-imidazo[4,5-b]pyridin-3-yl)cyclobutyl)quinazolin-2-amine] | 77.9
9 | O=C1N([C@H]2C[C@H](Nc3nc4ccccc4s3)C2)c2ncc(F)cc2C1(F)F [Example 208, 1-(trans-3-(benzo[d]thiazol-2-ylamino)cyclobutyl)-3,3,5-trifluoro-1H-pyrrolo[2,3-b]pyridin-2(3H)-one] | 0.626
10 | Cc1ccnc(N[C@H]2C[C@H](N3C(=O)C(C)(C)c4cccnc43)C2)n1 [Example 63, 1-(trans-3-((4-methylpyrimidin-2-yl)amino)cyclobutyl)-3,3-dimethyl-1H-pyrrolo[2,3-b]pyridin-2(3H)-one] | 38.6
11 | CC1(C)C(=O)N([C@H]2C[C@H](Nc3ncc(C4CC4)cn3)C2)c2ncccc21 [Example 79, 1-(trans-3-((5-cyclopropylpyrimidin-2-yl)amino)cyclobutyl)-3,3-dimethyl-1H-pyrrolo[2,3-b]pyridin-2(3H)-one] | 6.15
12 | CC(=O)Nc1ccc(N[C@H]2C[C@H](N3C(=O)C(C)(C)c4cccnc43)C2)nc1 [Example 56, N-(6-((Trans-3-(3,3-dimethyl-2-oxo-2,3-dihydro-1H-pyrrolo[2,3-b]pyridine-1-yl)cyclobutyl)amino)pyridine-3-yl)acetamide] | 8.42
13 | O=c1[nH]c2cccnc2n1[C@H]1C[C@H](Nc2ccc3ccccc3n2)C1 [Example 96, 3-(trans-3-(quinolin-2-ylamino)cyclobutyl)-1H-imidazo[4,5-b]pyridin-2(3H)-one] | 1.09
14 | (R)-1-(trans-3-(benzo[d]thiazol-2-ylamino)cyclobutyl)-3-hydroxy-3-methyl-1H-pyrrolo[2,3-b]pyridin-2(3H)-one and (S)-1-(trans-3-(benzo[d]thiazol-2-ylamino)cyclobutyl)-3-hydroxy-3-methyl-1H-pyrrolo[2,3-b]pyridin-2(3H)-one [Example 181] | 2.86
15 | CC1(C)C(=O)N([C@H]2C[C@H](Nc3ccc(F)cn3)C2)c2ncccc21 [Example 54, 1-(Trans-3-((5-fluoropyridin-2-yl)amino)cyclobutyl)-3,3-dimethyl-1H-pyrrolo[2,3-b]pyridin-2(3H)-one] | 6.47
16 | CCc1cnc(N[C@H]2C[C@H](N3C(=O)C(C)(C)c4cccnc43)C2)nc1 [Example 47, 1-(trans-3-((5-ethylpyrimidin-2-yl)amino)cyclobutyl)-3,3-dimethyl-1H-pyrrolo[2,3-b]pyridin-2(3H)-one] | 2.64
